The text below walks through data of ChEMBL document CHEMBL2010748, “Structure-Activity Relationship Studies of HIV-1 Integrase Oligonucleotide Inhibitors” (ACS Med Chem Lett, 2011).

Human immunodeficiency virus type 1 integrase, sequence (Q7ZJM1 whole entry): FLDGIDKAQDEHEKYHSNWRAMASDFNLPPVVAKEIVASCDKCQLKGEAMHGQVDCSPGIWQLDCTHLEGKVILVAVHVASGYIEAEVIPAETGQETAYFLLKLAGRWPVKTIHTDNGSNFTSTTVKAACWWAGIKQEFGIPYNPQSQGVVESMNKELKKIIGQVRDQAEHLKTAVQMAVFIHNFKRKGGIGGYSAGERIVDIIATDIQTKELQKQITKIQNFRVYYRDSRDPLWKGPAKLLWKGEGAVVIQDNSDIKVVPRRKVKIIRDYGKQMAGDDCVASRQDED

This test concerns the target Human immunodeficiency virus type 1 integrase (Human immunodeficiency virus 1, UniProt Q7ZJM1). The test can be described thus: Inhibition of Human immunodeficiency virus 1 integrase 3'-processing activity expressed in Escherichia coli using 21-mer DNA and Mg2+ after 2 hrs by polyacrylamide gel electrophoresis.
A word on the IC50: it is the concentration that gives 50% inhibition. Read a low IC50 as greater potency. As to `CCCCCCCC/C=C\CCCCCCCC(=O)NCCCOCC(O)COP(=O)(O)O[C@H]1C[C@H](n2cc(C)c(=O)[nH]c2=O)O[C@@H]1COP(=O)(O)O[C@H]1C[C@H](n2cnc3c(=O)[nH]c(N)nc32)O[C@@H]1COP(=O)(O)O[C@H]1C[C@H](n2cc(C)c(=O)[nH]c2=O)O[C@@H]1COP(=O)(O)O[C@H]1C[C@H](n2cnc3c(=O)[nH]c(N)nc32)O[C@@H]1COP(=O)(O)O[C@H]1C[C@H](n2cc(C)c(=O)[nH]c2=O)O[C@@H]1COP(=O)(O)O[C@H]1C[C@H](n2cc(C)c(=O)[nH]c2=O)O[C@@H]1COP(=O)(O)O[C@H]1C[C@H](n2cc(C)c(=O)[nH]c2=O)O[C@@H]1COP(=O)(O)O[C@H]1C[C@H](n2cc(C)c(=O)[nH]c2=O)O[C@@H]1COP(=O)(O)O[C@H]1C[C@H](n2cc(C)c(=O)[nH]c2=O)O[C@@H]1COP(=O)(O)O[C@H]1C[C@H](n2cnc3c(=O)[nH]c(N)nc32)O[C@@H]1COP(=O)(O)O[C@H]1C[C@H](n2cnc3c(=O)[nH]c(N)nc32)O[C@@H]1COP(=O)(O)O[C@@H]1C[C@@H](CO)N(C(=O)CCCCCNC(=O)c2ccc(C(=O)O)c(-c3c4ccc(=O)cc-4oc4cc(O)ccc34)c2)C1` (stereo partly specified), the IC50 worked out at 20 nM. In turn, `CCCCCCCC/C=C\CCCCCCCC(=O)NCCCOCC(O)COP(=O)(O)O[C@@H]1C[C@@H](COP(=O)(O)O[C@H]2C[C@H](n3cc(C)c(=O)[nH]c3=O)O[C@@H]2COP(=O)(O)O[C@H]2C[C@H](n3cnc4c(=O)[nH]c(N)nc43)O[C@@H]2COP(=O)(O)O[C@H]2C[C@H](n3cc(C)c(=O)[nH]c3=O)O[C@@H]2COP(=O)(O)O[C@H]2C[C@H](n3cnc4c(=O)[nH]c(N)nc43)O[C@@H]2COP(=O)(O)O[C@H]2C[C@H](n3cc(C)c(=O)[nH]c3=O)O[C@@H]2COP(=O)(O)O[C@H]2C[C@H](n3cc(C)c(=O)[nH]c3=O)O[C@@H]2COP(=O)(O)O[C@H]2C[C@H](n3cc(C)c(=O)[nH]c3=O)O[C@@H]2COP(=O)(O)O[C@H]2C[C@H](n3cc(C)c(=O)[nH]c3=O)O[C@@H]2COP(=O)(O)O[C@H]2C[C@H](n3cc(C)c(=O)[nH]c3=O)O[C@@H]2COP(=O)(O)O[C@H]2C[C@H](n3cnc4c(=O)[nH]c(N)nc43)O[C@@H]2COP(=O)(O)O[C@H]2C[C@H](n3cnc4c(=O)[nH]c(N)nc43)O[C@@H]2CO)N(C(=O)CCCCCNC(=O)c2ccc(C(=O)O)c(-c3c4ccc(=O)cc-4oc4cc(O)ccc34)c2)C1` (stereo partly specified) returned an IC50 of 23 nM. As for `Cc1cn([C@H]2C[C@H](OP(=O)(S)OC[C@H]3O[C@@H](n4cc(C)c(=O)[nH]c4=O)C[C@@H]3OP(=O)(S)OC[C@H]3O[C@@H](n4cc(C)c(=O)[nH]c4=O)C[C@@H]3OP(=O)(S)OC[C@H]3O[C@@H](n4cnc5c(=O)[nH]c(N)nc54)C[C@@H]3OP(=O)(S)OC[C@H]3O[C@@H](n4cc(C)c(=O)[nH]c4=O)C[C@@H]3OP(=O)(S)OC[C@H]3O[C@@H](n4cnc5c(=O)[nH]c(N)nc54)C[C@@H]3OP(=O)(S)OC[C@H]3O[C@@H](n4cc(C)c(=O)[nH]c4=O)C[C@@H]3OP(=O)(S)OCCCCCCNC(=S)Nc3ccc(-c4c5cc(Br)c(=O)c(Br)c-5oc5c(Br)c(O)c(Br)cc45)c(C(=O)O)c3)[C@@H](COP(=O)(S)O[C@H]3C[C@H](n4cc(C)c(=O)[nH]c4=O)O[C@@H]3COP(=O)(S)O[C@H]3C[C@H](n4cc(C)c(=O)[nH]c4=O)O[C@@H]3COP(=O)(S)O[C@H]3C[C@H](n4cnc5c(=O)[nH]c(N)nc54)O[C@@H]3COP(=O)(S)O[C@H]3C[C@H](n4cnc5c(=O)[nH]c(N)nc54)O[C@@H]3CO)O2)c(=O)[nH]c1=O` (stereo partly specified), the figure is 18 nM. As for `Cc1cn([C@H]2C[C@H](OP(=O)(O)OC[C@H]3O[C@@H](n4cc(C)c(=O)[nH]c4=O)C[C@@H]3OP(=O)(O)OC[C@H]3O[C@@H](n4cc(C)c(=O)[nH]c4=O)C[C@@H]3OP(=O)(S)OC[C@H]3O[C@@H](n4cnc5c(=O)[nH]c(N)nc54)C[C@@H]3OP(=O)(O)OC[C@H]3O[C@@H](n4cc(C)c(=O)[nH]c4=O)C[C@@H]3OP(=O)(S)OC[C@H]3O[C@@H](n4cnc5c(=O)[nH]c(N)nc54)C[C@@H]3OP(=O)(O)OC[C@H]3O[C@@H](n4cc(C)c(=O)[nH]c4=O)C[C@@H]3OP(=O)(S)OCCCCCCNC(=S)Nc3ccc(-c4c5cc(Br)c(=O)c(Br)c-5oc5c(Br)c(O)c(Br)cc45)c(C(=O)O)c3)[C@@H](COP(=O)(O)O[C@H]3C[C@H](n4cc(C)c(=O)[nH]c4=O)O[C@@H]3COP(=O)(O)O[C@H]3C[C@H](n4cc(C)c(=O)[nH]c4=O)O[C@@H]3COP(=O)(O)O[C@H]3C[C@H](n4cnc5c(=O)[nH]c(N)nc54)O[C@@H]3COP(=O)(O)O[C@H]3C[C@H](n4cnc5c(=O)[nH]c(N)nc54)O[C@@H]3CO)O2)c(=O)[nH]c1=O` (stereo partly specified), the figure is 20 nM; as for `Cc1cn([C@H]2C[C@H](OP(=O)(O)OC[C@H]3O[C@@H](n4cnc5c(=O)[nH]c(N)nc54)C[C@@H]3OP(=O)(O)OC[C@H]3O[C@@H](n4cc(C)c(=O)[nH]c4=O)C[C@@H]3OP(=O)(O)OC[C@H]3O[C@@H](n4cnc5c(=O)[nH]c(N)nc54)C[C@@H]3OP(=O)(O)OC[C@H]3O[C@@H](n4cc(C)c(=O)[nH]c4=O)C[C@@H]3OP(=O)(O)OCCCCCCNC(=S)Nc3ccc(-c4c5cc(Br)c(=O)c(Br)c-5oc5c(Br)c(O)c(Br)cc45)c(C(=O)O)c3)[C@@H](COP(=O)(O)O[C@H]3C[C@H](n4cc(C)c(=O)[nH]c4=O)O[C@@H]3COP(=O)(S)O[C@H]3C[C@H](n4cc(C)c(=O)[nH]c4=O)O[C@@H]3COP(=O)(S)O[C@H]3C[C@H](n4cc(C)c(=O)[nH]c4=O)O[C@@H]3COP(=O)(S)O[C@H]3C[C@H](n4cc(C)c(=O)[nH]c4=O)O[C@@H]3COP(=O)(O)O[C@H]3C[C@H](n4cnc5c(=O)[nH]c(N)nc54)O[C@@H]3COP(=O)(O)O[C@H]3C[C@H](n4cnc5c(=O)[nH]c(N)nc54)O[C@@H]3CO)O2)c(=O)[nH]c1=O` (stereo partly specified), 22 nM; as for `Cc1cn([C@H]2C[C@H](OP(=O)(O)OC[C@H]3O[C@@H](n4cc(C)c(=O)[nH]c4=O)C[C@@H]3OP(=O)(S)OC[C@H]3O[C@@H](n4cc(C)c(=O)[nH]c4=O)C[C@@H]3OP(=O)(O)OC[C@H]3O[C@@H](n4cnc5c(=O)[nH]c(N)nc54)C[C@@H]3OP(=O)(O)OC[C@H]3O[C@@H](n4cc(C)c(=O)[nH]c4=O)C[C@@H]3OP(=O)(S)OC[C@H]3O[C@@H](n4cnc5c(=O)[nH]c(N)nc54)C[C@@H]3OP(=O)(O)OC[C@H]3O[C@@H](n4cc(C)c(=O)[nH]c4=O)C[C@@H]3OP(=O)(O)OCCCCCCNC(=S)Nc3ccc(-c4c5cc(Br)c(=O)c(Br)c-5oc5c(Br)c(O)c(Br)cc45)c(C(=O)O)c3)[C@@H](COP(=O)(O)O[C@H]3C[C@H](n4cc(C)c(=O)[nH]c4=O)O[C@@H]3COP(=O)(S)O[C@H]3C[C@H](n4cc(C)c(=O)[nH]c4=O)O[C@@H]3COP(=O)(O)O[C@H]3C[C@H](n4cnc5c(=O)[nH]c(N)nc54)O[C@@H]3COP(=O)(O)O[C@H]3C[C@H](n4cnc5c(=O)[nH]c(N)nc54)O[C@@H]3CO)O2)c(=O)[nH]c1=O` (stereo partly specified), 24 nM. `Cc1cn([C@H]2C[C@H](O)[C@@H](COP(=O)(O)O[C@H]3CCO[C@@H]3COP(=O)(O)O[C@H]3CCO[C@@H]3COP(=O)(O)O[C@H]3CCO[C@@H]3COP(=O)(O)O[C@H]3CCO[C@@H]3COP(=O)(O)O[C@H]3CCO[C@@H]3COP(=O)(O)O[C@H]3CCO[C@@H]3COP(=O)(O)O[C@H]3CCO[C@@H]3COP(=O)(O)O[C@H]3CCO[C@@H]3COP(=O)(O)O[C@H]3CCO[C@@H]3COP(=O)(O)O[C@H]3CCO[C@@H]3COP(=O)(O)OCCCCCCNC(=O)c3cc(Cl)c(C(=O)O)c(-c4c5cc(Cl)c(=O)c(Cl)c-5oc5c(Cl)c(O)c(Cl)cc45)c3Cl)O2)c(=O)[nH]c1=O` had an IC50 of 1200 nM. In turn, `Cc1cn([C@H]2C[C@H](OP(=O)(O)OC[C@H]3O[C@@H](n4cnc5c(=O)[nH]c(N)nc54)C[C@@H]3OP(=O)(O)OC[C@H]3O[C@@H](n4cc(C)c(=O)[nH]c4=O)C[C@@H]3OP(=O)(O)OC[C@H]3O[C@@H](n4cnc5c(=O)[nH]c(N)nc54)C[C@@H]3OP(=O)(O)OC[C@H]3O[C@@H](n4cc(C)c(=O)[nH]c4=O)C[C@@H]3O)[C@@H](COP(=O)(O)O[C@H]3CCO[C@@H]3COP(=O)(O)O[C@H]3CCO[C@@H]3COP(=O)(O)O[C@H]3CCO[C@@H]3COP(=O)(O)O[C@H]3CCO[C@@H]3COP(=O)(O)O[C@H]3CCO[C@@H]3COP(=O)(O)O[C@H]3CCO[C@@H]3COP(=O)(O)OCCCCCCNC(=O)c3cc(Cl)c(C(=O)O)c(-c4c5cc(Cl)c(=O)c(Cl)c-5oc5c(Cl)c(O)c(Cl)cc45)c3Cl)O2)c(=O)[nH]c1=O` displayed an IC50 of 280 nM.

The compound `Cc1cn([C@H]2C[C@H](OP(=O)(O)OC[C@H]3OCC[C@@H]3OP(=O)(O)OC[C@H]3OCC[C@@H]3OP(=O)(O)OC[C@H]3OCC[C@@H]3OP(=O)(O)OC[C@H]3OCC[C@@H]3OP(=O)(O)OC[C@H]3OCC[C@@H]3OP(=O)(O)OC[C@H]3OCC[C@@H]3OP(=O)(O)OC[C@H]3O[C@@H](n4cc(C)c(=O)[nH]c4=O)C[C@@H]3O)[C@@H](COP(=O)(O)O[C@H]3C[C@H](n4cc(C)c(=O)[nH]c4=O)O[C@@H]3COP(=O)(O)O[C@H]3C[C@H](n4cnc5c(=O)[nH]c(N)nc54)O[C@@H]3COP(=O)(O)O[C@H]3C[C@H](n4cnc5c(=O)[nH]c(N)nc54)O[C@@H]3COP(=O)(O)OCCCCCCNC(=O)c3cc(Cl)c(C(=O)O)c(-c4c5cc(Cl)c(=O)c(Cl)c-5oc5c(Cl)c(O)c(Cl)cc45)c3Cl)O2)c(=O)[nH]c1=O` displayed a half-inhibitory concentration (IC50) of 250 nM. The IC50 values of the last two compounds are within 1.5-fold of each other.

Compound `Cc1cn([C@H]2C[C@H](O)[C@@H](COP(=O)(O)OCCCOP(=O)(O)OCCCOP(=O)(O)OCCCOP(=O)(O)OCCCOP(=O)(O)OCCCOP(=O)(O)OCCCOP(=O)(O)OCCCOP(=O)(O)OCCCOP(=O)(O)OCCCOP(=O)(O)OCCCOP(=O)(O)OCCCCCCNC(=O)c3cc(Cl)c(C(=O)O)c(-c4c5cc(Cl)c(=O)c(Cl)c-5oc5c(Cl)c(O)c(Cl)cc45)c3Cl)O2)c(=O)[nH]c1=O` had a half-inhibitory concentration (IC50) of 1300 nM.

`Cc1cn([C@H]2C[C@H](OP(=O)(O)OC[C@H]3O[C@@H](n4cnc5c(=O)[nH]c(N)nc54)C[C@@H]3OP(=O)(O)OC[C@H]3O[C@@H](n4cc(C)c(=O)[nH]c4=O)C[C@@H]3OP(=O)(O)OC[C@H]3O[C@@H](n4cnc5c(=O)[nH]c(N)nc54)C[C@@H]3OP(=O)(O)OC[C@H]3O[C@@H](n4cc(C)c(=O)[nH]c4=O)C[C@@H]3O)[C@@H](COP(=O)(O)OCCCOP(=O)(O)OCCCOP(=O)(O)OCCCOP(=O)(O)OCCCOP(=O)(O)OCCCOP(=O)(O)OCCCOP(=O)(O)OCCCCCCNC(=O)c3cc(Cl)c(C(=O)O)c(-c4c5cc(Cl)c(=O)c(Cl)c-5oc5c(Cl)c(O)c(Cl)cc45)c3Cl)O2)c(=O)[nH]c1=O` gave an IC50 of 250 nM.
